Experimental data taken from ChEMBL document CHEMBL3832761, “MMV Pathogen Box Bioactivity Data” (2017).
Converted amounts (≈) assume the structure as drawn.

Assays:
Type in all cases: functional
[1] = test system: Mycobacterium tuberculosis; assay: AntiMycobacterium tuberculosis activity 2-week Alamar Blue 7H9/cholesterol/BSA/Tx MIC (uM); conditions: 336 h
[2] = test system: Mycobacterium tuberculosis; assay: AntiMycobacterium tuberculosis activity 2-week 7H9/glucose/BSA/Tx MIC (uM); conditions: 336 h
[3] = test system: Mycobacterium tuberculosis; assay: AntiMycobacterium tuberculosis activity 1-week 7H9/cholesterol/BSA/Tx MIC (uM); conditions: 168 h
[4] = test system: Mycobacterium tuberculosis; assay: AntiMycobacterium tuberculosis activity 2-week 7H9/DPPC/cholesterol/BSA/Tx MIC (uM); conditions: 336 h
[5] = test system: Mycobacterium tuberculosis; assay: AntiMycobacterium tuberculosis activity 1-week 7H9/glucose/BSA/Tx MIC (uM); conditions: 168 h
[6] = test system: Mycobacterium tuberculosis; assay: (§1) AntiMycobacterium tuberculosis activity day 10 in 7H9/2.5mM butyrate/pH6/0.1mM nitrite MIC90 (uM); conditions: 240 h
[7] = test system: Mycobacterium tuberculosis; assay: AntiMycobacterium tuberculosis activity Replicating form: Average MIC90 (uM)
[8] = test system: Mycobacterium tuberculosis; assay: AntiMycobacterium tuberculosis activity 2-week GAST/Fe MIC (uM); conditions: 336 h
[9] = test system: Mycobacterium tuberculosis; assay: AntiMycobacterium tuberculosis activity 2-week Alamar Blue 7H9/ADC/Tw MIC (uM); conditions: 336 h
[10] = test system: Mycobacterium tuberculosis; assay: as §1; conditions: 240 h; remark: listed apart in the source
[11] = test system: Mycobacterium tuberculosis; assay: AntiMycobacterium tuberculosis activity 1-week GAST/Fe MIC (uM); conditions: 168 h
[12] = test system: Mycobacterium tuberculosis; assay: AntiMycobacterium tuberculosis activity day 21 in 7H9/2.5mM butyrate/pH6/0.1mM nitrite MIC90 (uM); conditions: 504 h
[13] = test system: Mycobacterium tuberculosis; assay: AntiMycobacterium tuberculosis activity day 21 MIC99 in 7H9/2.5mM butyrate/pH6/0.1mM nitrite MIC99 (uM); conditions: 504 h
[14] = test system: Mycobacterium tuberculosis; assay: AntiMycobacterium tuberculosis activity 1-week 7H9/DPPC/cholesterol/BSA/Tx MIC (uM); conditions: 168 h
HepG2 = assay: HepG2 CC50 (uM) Cytotoxicity; conditions: Homo sapiens
[15] = test system: Mycobacterium tuberculosis; assay: AntiMycobacterium tuberculosis activity 2-week 7H9/ADC/Tw MIC (uM); conditions: 336 h
[16] = test system: Mycobacterium tuberculosis; assay: AntiMycobacterium tuberculosis activity 1-week 7H9/ADC/Tw MIC (uM); conditions: 168 h
[17] = test system: Mycobacterium tuberculosis; assay: AntiMycobacterium tuberculosis activity Non-Replicating form: Average MIC90 (uM)

Row | SMILES | MIC [1] [µM] | MIC [2] [µM] | MIC [3] [µM] | MIC [4] [µM] | MIC [5] [µM] | MIC90 [6] [µM] | MIC90 [7] [µM] | MIC [8] [µM] | MIC [9] [µM] | MIC90 [10] [µM] | MIC [11] [µM] | MIC90 [12] [µM] | MIC [13] [µM] | MIC [14] [µM] | CC50 (HepG2) [µM] | MIC [15] [µM] | MIC [16] [µM] | MIC90 [17] [µM]
1 | COc1ccccc1OCCCCn1c(C2CC2)nc2ccccc21 | 4.7 (≈ 1.58 µg/mL) | > 50 | 3.13 (≈ 1.05 µg/mL) | 37 (≈ 12.4 µg/mL) | 37 (≈ 12.4 µg/mL) | 50 (≈ 16.8 µg/mL) | > 100 | 0.6 (≈ 0.202 µg/mL) | 19 (≈ 6.39 µg/mL) | 6.25 (≈ 2.1 µg/mL) | 0.2 (≈ 0.0673 µg/mL) | 25 (≈ 8.41 µg/mL) | > 50 | 9.4 (≈ 3.16 µg/mL) | 100 | > 50 | > 50 | 16.4 (≈ 5.52 µg/mL)
2 | CCCn1nnc(NC(=O)COc2ccc(C3CCCCC3)cc2)n1 | 25 (≈ 8.59 µg/mL) | 37 (≈ 12.7 µg/mL) | 6.25 (≈ 2.15 µg/mL) | 37 (≈ 12.7 µg/mL) | 19 (≈ 6.53 µg/mL) | 50 (≈ 17.2 µg/mL) | 40.1 (≈ 13.8 µg/mL) | 12.5 (≈ 4.29 µg/mL) | 37 (≈ 12.7 µg/mL) | 25 (≈ 8.59 µg/mL) | 6.25 (≈ 2.15 µg/mL) | 50 (≈ 17.2 µg/mL) | 50 (≈ 17.2 µg/mL) | 19 (≈ 6.53 µg/mL) | > 100 | 37 (≈ 12.7 µg/mL) | 19 (≈ 6.53 µg/mL) | 98.5 (≈ 33.8 µg/mL)
3 | Cc1ccc2oc(-c3cc(NC(=O)Cc4ccccc4)ccc3Cl)nc2c1 | 25 (≈ 9.42 µg/mL) | 25 (≈ 9.42 µg/mL) | 25 (≈ 9.42 µg/mL) | 12.5 (≈ 4.71 µg/mL) | 25 (≈ 9.42 µg/mL) | > 50 | 3.58 (≈ 1.35 µg/mL) | 9.4 (≈ 3.54 µg/mL) | 25 (≈ 9.42 µg/mL) | > 50 | 6.25 (≈ 2.36 µg/mL) | > 50 | > 50 | 12.5 (≈ 4.71 µg/mL) | 83.6 | 25 (≈ 9.42 µg/mL) | 25 (≈ 9.42 µg/mL) | > 100
4 | Cc1cccc(-c2nc(Nc3ccncn3)c3sccc3n2)n1 | 6.25 (≈ 2 µg/mL) | > 50 | 37 (≈ 11.9 µg/mL) | > 50 | ≥ 50 | 6.25 (≈ 2 µg/mL) | 2.5 (≈ 0.801 µg/mL) | 12.5 (≈ 4 µg/mL) | 9.4 (≈ 3.01 µg/mL) | 3.12 (≈ 1 µg/mL) | 6.25 (≈ 2 µg/mL) | 6.25 (≈ 2 µg/mL) | 6.25 (≈ 2 µg/mL) | 37 (≈ 11.9 µg/mL) | 14.3 | 9.4 (≈ 3.01 µg/mL) | 4.7 (≈ 1.51 µg/mL) | 0.09 (≈ 0.0288 µg/mL)
5 | CCC(Sc1nc2ccccc2o1)C(=O)Nc1nccs1 (configuration not stated) | 12.5 (≈ 3.99 µg/mL) | 12.5 (≈ 3.99 µg/mL) | 12.5 (≈ 3.99 µg/mL) | 12.5 (≈ 3.99 µg/mL) | 9.4 (≈ 3 µg/mL) | 12.5 (≈ 3.99 µg/mL) | 3.08 (≈ 0.984 µg/mL) | 37 (≈ 11.8 µg/mL) | 9.4 (≈ 3 µg/mL) | 6.25 (≈ 2 µg/mL) | 37 (≈ 11.8 µg/mL) | 6.25 (≈ 2 µg/mL) | 6.25 (≈ 2 µg/mL) | 9.4 (≈ 3 µg/mL) | 13 | 9.4 (≈ 3 µg/mL) | 9.4 (≈ 3 µg/mL) | 1.38 (≈ 0.441 µg/mL)
6 | COc1cccc(OC)c1C(=O)Nc1ccc(Cl)c(-c2nc3ccccc3s2)c1 | 19 (≈ 8.07 µg/mL) | 25 (≈ 10.6 µg/mL) | 12.5 (≈ 5.31 µg/mL) | 12.5 (≈ 5.31 µg/mL) | 25 (≈ 10.6 µg/mL) | > 50 | 26.1 (≈ 11.1 µg/mL) | 9.4 (≈ 3.99 µg/mL) | 37 (≈ 15.7 µg/mL) | > 50 | 6.25 (≈ 2.66 µg/mL) | > 50 | > 50 | 12.5 (≈ 5.31 µg/mL) | > 100 | 37 (≈ 15.7 µg/mL) | 37 (≈ 15.7 µg/mL) | 55.1 (≈ 23.4 µg/mL)
7 | O=C(NCCc1c[nH]c2ccccc12)c1cc2ccccc2oc1=O | 4.7 (≈ 1.56 µg/mL) | 1.56 (≈ 0.518 µg/mL) | 1.2 (≈ 0.399 µg/mL) | 3.13 (≈ 1.04 µg/mL) | 0.78 (≈ 0.259 µg/mL) | > 50 | 7.71 (≈ 2.56 µg/mL) | 0.6 (≈ 0.199 µg/mL) | 0.78 (≈ 0.259 µg/mL) | 12.5 (≈ 4.15 µg/mL) | 0.3 (≈ 0.0997 µg/mL) | 50 (≈ 16.6 µg/mL) | > 50 | 1.56 (≈ 0.518 µg/mL) | > 100 | 0.78 (≈ 0.259 µg/mL) | 0.78 (≈ 0.259 µg/mL) | 4.78 (≈ 1.59 µg/mL)
8 | CCc1nc2ccccc2n1CC(O)COc1cc(C)ccc1Cl (configuration not stated) | 9.4 (≈ 3.24 µg/mL) | ≥ 50 | 9.4 (≈ 3.24 µg/mL) | 25 (≈ 8.62 µg/mL) | 37 (≈ 12.8 µg/mL) | > 50 | 78 (≈ 26.9 µg/mL) | 12.5 (≈ 4.31 µg/mL) | 37 (≈ 12.8 µg/mL) | 25 (≈ 8.62 µg/mL) | 12.5 (≈ 4.31 µg/mL) | 50 (≈ 17.2 µg/mL) | > 50 | 12.5 (≈ 4.31 µg/mL) | 43.2 | ≥ 50 | 37 (≈ 12.8 µg/mL) | 70 (≈ 24.1 µg/mL)
9 | COC(=O)c1c(NC(=O)c2c(F)c(F)c(F)c(F)c2F)sc2c1CCCCC2 | 1.56 (≈ 0.654 µg/mL) | 1.2 (≈ 0.503 µg/mL) | 0.6 (≈ 0.252 µg/mL) | 1.56 (≈ 0.654 µg/mL) | 0.78 (≈ 0.327 µg/mL) | 3.1 (≈ 1.3 µg/mL) | 0.86 (≈ 0.361 µg/mL) | 0.78 (≈ 0.327 µg/mL) | 1.56 (≈ 0.654 µg/mL) | 1.5 (≈ 0.629 µg/mL) | 0.78 (≈ 0.327 µg/mL) | 3.1 (≈ 1.3 µg/mL) | 3.1 (≈ 1.3 µg/mL) | 0.6 (≈ 0.252 µg/mL) | 7.5 | 2.3 (≈ 0.965 µg/mL) | 1.2 (≈ 0.503 µg/mL) | 3.8 (≈ 1.59 µg/mL)
